Assay results taken from publication PMC1884159, “The crystal structure of Escherichia coli TdcF, a member of the highly conserved YjgF/YER057c/UK114 family” (BMC Structural Biology, 2007).

What was measured:
[1] = target: T1, TdcF (Escherichia coli, UniProt P0AGL2); test: X-ray crystal structure, no ligand added (as isolated); format: binding; conditions: 1.6 Å; inter-subunit site C only; putative identity from density, threonine an alternative
T1 construct: recombinant, N-terminal His-tag not cleaved; homotrimer, 14 kDa subunits; ligand sites at subunit interfaces; Cys-36 seen as cysteine sulfonic acid in crystals

[2] = target: T1, TdcF; test: X-ray crystal structure, crystal soak; format: binding; conditions: 1 mM soak, 2 h, pH 8

T1 sequence (P0AGL2 whole entry): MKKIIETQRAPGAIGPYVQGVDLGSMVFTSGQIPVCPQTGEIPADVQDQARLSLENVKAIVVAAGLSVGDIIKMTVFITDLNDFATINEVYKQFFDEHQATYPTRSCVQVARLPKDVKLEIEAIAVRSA

SMILES: N[C@@H](CO)C(=O)O [SER, serine]
- X-ray crystal structure, no ligand added (as isolated) [1]: with serine as the ligand with its side-chain in two alternative conformations of equal occupancy

SMILES: CCC(=O)C(=O)O [2KT, 2-ketobutyrate]
- X-ray crystal structure, crystal soak ([2]; 1.6 Å, inter-subunit sites A, B and C occupied): clear density for a 2-ketobutyrate ligand in each of the three binding sites

SMILES: CCC(=O)O [PPI, propionate]
- X-ray crystal structure, crystal soak ([2]; 2.45 Å, inter-subunit sites B and C occupied): a propionate molecule could be placed with confidence in both
